Literature values in patent publication US20180050107A1, “NEUROSTEROID COMPOSITIONS AND METHODS OF USE THEREOF” (Janssen Pharmaceutica NV, priority 2016, published 2018).
Like-named read-outs stand apart in the source and are kept apart here. Where a SMILES comes first, the peptide text is derived from it.

Legend:
[1] = biological target: T1, TrkB receptors (Mus musculus, UniProt P15209); conditions: mouse hippocampus
T1 construct: its downstream PI3K/Akt and MAPK receptors in the mouse hippocampus; host or cells: mouse hippocampus
T1 sequence (P15209 32-821): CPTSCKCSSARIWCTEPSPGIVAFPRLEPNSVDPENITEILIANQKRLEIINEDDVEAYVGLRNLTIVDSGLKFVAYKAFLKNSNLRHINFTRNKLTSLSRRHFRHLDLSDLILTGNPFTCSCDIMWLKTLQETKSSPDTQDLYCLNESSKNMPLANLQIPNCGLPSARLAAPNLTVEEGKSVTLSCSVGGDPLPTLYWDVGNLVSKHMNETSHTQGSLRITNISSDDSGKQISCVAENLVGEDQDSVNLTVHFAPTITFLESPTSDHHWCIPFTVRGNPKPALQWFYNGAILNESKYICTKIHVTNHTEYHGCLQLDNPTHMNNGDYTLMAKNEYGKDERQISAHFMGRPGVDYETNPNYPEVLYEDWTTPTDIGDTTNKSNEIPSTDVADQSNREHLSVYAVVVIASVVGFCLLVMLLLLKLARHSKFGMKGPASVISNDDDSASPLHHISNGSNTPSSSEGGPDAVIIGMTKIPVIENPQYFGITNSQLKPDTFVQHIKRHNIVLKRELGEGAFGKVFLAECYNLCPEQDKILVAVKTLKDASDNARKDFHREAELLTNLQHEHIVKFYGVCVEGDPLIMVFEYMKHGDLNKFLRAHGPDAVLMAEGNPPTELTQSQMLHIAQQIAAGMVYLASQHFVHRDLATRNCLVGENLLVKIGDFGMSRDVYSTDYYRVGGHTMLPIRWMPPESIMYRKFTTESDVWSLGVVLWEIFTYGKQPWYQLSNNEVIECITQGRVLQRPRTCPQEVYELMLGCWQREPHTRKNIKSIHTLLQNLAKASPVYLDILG

[2] = ICU patients
[3] = biological target: T2, rat cerebellar GABA delta subunits (Rattus norvegicus, UniProt P18506)
T2 construct: rat cerebellar GABA delta subunits; host or cells: rat cerebellum
T2 sequence (P18506 17-449 limits assumed): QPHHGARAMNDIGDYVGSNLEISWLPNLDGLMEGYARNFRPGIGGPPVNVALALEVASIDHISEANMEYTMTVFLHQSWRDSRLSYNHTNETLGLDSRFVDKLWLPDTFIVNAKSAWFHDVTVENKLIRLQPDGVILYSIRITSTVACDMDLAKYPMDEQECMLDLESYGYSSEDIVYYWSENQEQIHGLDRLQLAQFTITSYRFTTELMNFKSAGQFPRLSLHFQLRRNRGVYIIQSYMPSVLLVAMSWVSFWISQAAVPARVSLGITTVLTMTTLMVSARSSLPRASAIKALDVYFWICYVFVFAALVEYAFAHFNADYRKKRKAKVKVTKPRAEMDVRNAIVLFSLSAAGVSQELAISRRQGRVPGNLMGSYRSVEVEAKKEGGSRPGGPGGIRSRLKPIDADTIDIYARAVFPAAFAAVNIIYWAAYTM
T2 sequence (P30191 20-453 partner): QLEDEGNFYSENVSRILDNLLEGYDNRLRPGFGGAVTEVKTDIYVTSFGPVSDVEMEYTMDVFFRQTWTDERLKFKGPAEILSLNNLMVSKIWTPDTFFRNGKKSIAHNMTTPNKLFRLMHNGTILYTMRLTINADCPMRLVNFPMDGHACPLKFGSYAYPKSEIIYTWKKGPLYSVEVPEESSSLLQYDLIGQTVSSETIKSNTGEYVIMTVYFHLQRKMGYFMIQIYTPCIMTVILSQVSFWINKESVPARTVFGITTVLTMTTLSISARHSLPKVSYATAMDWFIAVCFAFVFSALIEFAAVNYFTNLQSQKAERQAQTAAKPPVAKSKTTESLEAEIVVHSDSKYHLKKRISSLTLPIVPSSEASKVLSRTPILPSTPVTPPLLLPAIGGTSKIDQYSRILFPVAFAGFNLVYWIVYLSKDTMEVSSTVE

[4] = not given; remark: listed apart in the source
[5] = in vivo
[6] = not given; remark: listed apart in the source
[7] = gangliosides added to conventional liposomes
[8] = system: MDA-MB-231 breast cancer cells; conditions: 0.1 μM
[9] = in vivo; remark: listed apart in the source
[10] = system: MMP-9; conditions: 0.1 μM
[11] = biological target: β2-AR (Homo sapiens, UniProt P07550); conditions: 0.1 μM
β2-AR, sequence (P07550 whole entry): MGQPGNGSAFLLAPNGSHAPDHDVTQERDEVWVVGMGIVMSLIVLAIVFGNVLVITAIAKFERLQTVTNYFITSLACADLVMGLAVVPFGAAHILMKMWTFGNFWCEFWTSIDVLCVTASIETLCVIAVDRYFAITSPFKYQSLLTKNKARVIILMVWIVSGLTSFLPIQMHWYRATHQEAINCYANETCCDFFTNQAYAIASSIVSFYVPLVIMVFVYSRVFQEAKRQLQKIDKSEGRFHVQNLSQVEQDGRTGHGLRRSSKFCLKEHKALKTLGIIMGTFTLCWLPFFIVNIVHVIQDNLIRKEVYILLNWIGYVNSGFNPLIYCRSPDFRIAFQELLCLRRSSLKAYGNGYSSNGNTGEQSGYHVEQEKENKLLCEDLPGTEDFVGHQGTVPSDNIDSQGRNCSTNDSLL

[12] = biological target: T3, GABA(A) delta (Homo sapiens, UniProt O14764); conditions: 10 uMol/L, in vitro
T3 sequence (O14764 25-452): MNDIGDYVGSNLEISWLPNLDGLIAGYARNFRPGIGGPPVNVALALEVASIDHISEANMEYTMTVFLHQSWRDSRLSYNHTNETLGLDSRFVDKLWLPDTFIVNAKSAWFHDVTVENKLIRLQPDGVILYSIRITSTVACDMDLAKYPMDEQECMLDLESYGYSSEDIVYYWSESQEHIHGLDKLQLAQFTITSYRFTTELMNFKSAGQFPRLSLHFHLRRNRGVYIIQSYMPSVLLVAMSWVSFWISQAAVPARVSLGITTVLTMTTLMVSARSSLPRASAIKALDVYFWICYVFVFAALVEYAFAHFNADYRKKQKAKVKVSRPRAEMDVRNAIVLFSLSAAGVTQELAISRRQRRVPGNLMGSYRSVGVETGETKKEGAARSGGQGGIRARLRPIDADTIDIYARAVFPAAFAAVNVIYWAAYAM

[13] = system: neurons; conditions: read-out: EC50 for suppression of apoptosis in neurons
[14] = system: lung cancer patients; conditions: combination with EGFR-TKI chemotherapy
[15] = biological target: T3, GABA(A) delta; conditions: 1 μMol/L
[16] = in vivo; remark: listed apart in the source
[17] = oral administration, healthy volunteers
[18] = biological target: T3, GABA(A) delta; conditions: 100 uM
[19] = in vivo; remark: listed apart in the source
[20] = in vivo; remark: listed apart in the source
[21] = not given; remark: listed apart in the source
[22] = biological target: T4, PPAR-gamma receptors (Homo sapiens, UniProt P37231); conditions: read-out: EC for activation of PPAR-gamma receptors
T4 sequence (P37231 1-505): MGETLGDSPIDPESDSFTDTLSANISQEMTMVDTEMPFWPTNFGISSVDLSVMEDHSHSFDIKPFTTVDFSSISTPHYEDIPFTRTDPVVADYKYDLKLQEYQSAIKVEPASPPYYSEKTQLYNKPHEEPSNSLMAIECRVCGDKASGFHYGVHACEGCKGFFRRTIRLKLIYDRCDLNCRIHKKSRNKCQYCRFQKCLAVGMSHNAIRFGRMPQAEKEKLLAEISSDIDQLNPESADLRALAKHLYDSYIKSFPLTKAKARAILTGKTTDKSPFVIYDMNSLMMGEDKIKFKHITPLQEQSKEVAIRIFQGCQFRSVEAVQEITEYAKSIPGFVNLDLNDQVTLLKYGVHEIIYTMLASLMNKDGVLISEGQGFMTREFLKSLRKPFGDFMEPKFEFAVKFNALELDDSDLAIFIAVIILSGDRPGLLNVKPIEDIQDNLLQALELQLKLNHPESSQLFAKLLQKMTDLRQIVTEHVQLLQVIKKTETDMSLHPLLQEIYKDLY

O=c1cc(-c2ccccc2)oc2c(O)c(O)ccc12 [7,8-DHF, 7,8 dihydroxyflavone]
concentration activating TrkB receptors [1]: 250 nM

C[C@H](N)C(=O)N[C@@H](CCC(N)=O)C(=O)O [AG, Alanyl-Glutamine] (H-Ala-Gln-OH)
plasma half-life [2]: 15.6 min | log P: −2.15

CC(=O)[C@H]1CC[C@H]2[C@@H]3CC[C@H]4C[C@H](O)CC[C@]4(C)[C@H]3CC[C@]12C [Allopregnanolone, 3α-hydroxy-5α-pregnan-20-one]
concentration range potentiating rat cerebellar GABA delta subunits [3]: nanomolar range

NCCC(=O)N[C@@H](Cc1cnc[nH]1)C(=O)O [Carnosine]
half-life in human plasma [4]: < 5 min | log P: −1.19

O=C1N[C@@H](Cc2cnc[nH]2)C(=O)N2CCC[C@@H]12 [Cyclo His-Pro]
log P: −1.48 | biphasic half-life, first phase [5]: 1 min | biphasic half-life, second phase [5]: 33 min

Nc1ccn([C@@H]2O[C@H](CO)[C@@H](O)[C@@H]2O)c(=O)n1 [Cytarabine]
half-life in plasma ([6]; continuous infusion): 126 min | half-life ([6]; intravenously delivered): 7 to 107 min | half-life ([6]; subcutaneously delivered): 18 min

O=C[C@H](O)[C@@H](O)[C@H](O)[C@H](O)COP(=O)(O)O [Example G6P, glucose-6-phosphate]
flux from the liposome into plasma [7]: about 5 % per hour | log P: −3.24

O=C(O)[C@H]1O[C@@H](Oc2c(-c3ccc(O)c(O)c3)oc3cc(O)cc(O)c3c2=O)[C@H](O)[C@@H](O)[C@@H]1O [Example Q3G, quercetin-3-O-glucuronide]
invasion of MDA-MB-231 breast cancer cells [8]: suppressed invasion | plasma elimination half-life [9]: 140 min | log P: 2.10 | MMP-9 induction [10]: suppressed | binding of [(3)H]-NA to β2-AR [11]: inhibited the binding

N[C@@H](CCC(=O)NCCS(=O)(=O)O)C(=O)O [GGT, Gamma-Glutamyltaurine]
log P: −3.36

C=CCc1ccc(O)c(-c2ccc(O)c(CC=C)c2)c1 [Honokiol]
increase of GABA current [12]: about 900%

O=C1C[C@@H](c2ccccc2)Oc2cc(O)cc(O)c21 [Pinocembrin]
EC50 [13]: 0.1 µM

CC(C)=CCC[C@](C)(O)[C@H]1CC[C@]2(C)[C@@H]1[C@H](O)C[C@@H]1[C@@]3(C)CC[C@H](O[C@@H]4O[C@H](CO)[C@@H](O)[C@H](O)[C@H]4O[C@@H]4O[C@H](CO)[C@@H](O)[C@H](O)[C@H]4O)C(C)(C)[C@@H]3CC[C@]12C [Rg3, ginsenoside Rg3]
increase in the duration of progression free survival [14]: 20%

C[C@]12CC[C@@H](O)C[C@H]1CC[C@@H]1[C@@H]2CC[C@]2(C)[C@@H](C(=O)CO)CC[C@@H]12 [THDOC, tetrahydrodeoxycorticosterone]
increase of GABA current [15]: at least 700%

NC(=O)[C@@H]1CCCN1C(=O)[C@H](Cc1cnc[nH]1)NC(=O)[C@@H]1CCC(=O)N1 [TRH]
half-life [16]: 7.6 min

NCCS(=O)(=O)O [Taurine]
log P: −3.36 | half-life [17]: 60 min

O=C(O)[C@H]1O[C@@H](Oc2cc3oc(-c4ccccc4)cc(=O)c3c(O)c2O)[C@H](O)[C@@H](O)[C@@H]1O [baicalin]
log P: 1.27

COc1ccc([C@@H]2CC(=O)c3c(O)cc(O)cc3O2)cc1O [hesperetin]
log P: 2.90

O=c1c(O[C@@H]2O[C@H](CO)[C@H](O)[C@H](O)[C@H]2O)c(-c2ccc(O)c(O)c2)oc2cc(O)cc(O)c12 [hyperoside]
log P: 1.75

CC1(C)C2CC=C(CO)C1C2 (centres unmarked) [myrtenol]
GABA(A) delta agonism [18]: GABA(A) delta agonist

CC[C@H](C)[C@@H]1NC(=O)[C@H](Cc2ccc(O)cc2)NC(=O)[C@@H](N)CSSC[C@@H](C(=O)N2CCC[C@H]2C(=O)N[C@@H](CC(C)C)C(=O)NCC(N)=O)NC(=O)[C@H](CC(N)=O)NC(=O)[C@H](CCC(N)=O)NC1=O [oxytocin]
crossing of the blood brain barrier [19]: failure to cross the blood brain barrier | half-life [20]: ~6.8 min

O=C(O)[C@H]1O[C@@H](Oc2cc3oc(-c4ccc(O)cc4)cc(=O)c3c(O)c2O)[C@H](O)[C@@H](O)[C@@H]1O [scutellarin]
bioavailability ([21]; oral): less than 3% | factor of decrease of plasma concentration ([21]; over about an hour): about 10

CC1=CC(O)C2CC1C2(C)C (centres unmarked) [verbenol]
GABA(A) delta agonism [18]: GABA(A) delta agonist

hesperetin glucuronide
EC50 [22]: ~100 µM | log P: 0.12
